18 compounds from US12479827B2, “Heteroaromatic carboxamide derivatives as plasma kallikrein inhibitors” (Boehringer Ingelheim International GmbH, priority 2020, dated 2025) can be followed below.

For one assay, the target named is T1, Human PKK (Homo sapiens, UniProt P03952).
T1 construct: purchased Enzyme Research Laboratories
The experiment in a line: Inhibition of PKK using an endpoint assay (human PKK). Type of assay: biochemical. Conditions: fluorogenic substrate H-Pro-Phe-Arg-AMC, 1 h room temperature, method names human or rat PKK, table does not say which. As to the method:
The ability of compounds of formula (I) to inhibit plasma kallikrein (PKK), Factor XIIa (FXIIa), Factor XIa (FXIa), Factor Xa (FXa), Factor IIa (alpha-thrombin; FIIa), plasmin, trypsin, tissue kallikrein 1 (TK1), Factor VIIa (FVIIa), or FVIIa complexed with Tissue Factor, phospholipids and CaCl2 (FVIIa/TF/PL/CaCl2) is determined using the following biochemical assays in assay buffer (100 mM Tris, 150 mM NaCL, adjusted to a pH of 7.8 with HCl, and containing 0.1% (w/v) BSA and 0.05% (v/v) Tween20) in the presence of 1% (v/v) DMSO:
Subsequently, PPACK II (Calbiochem) is added as a stop solution to achieve a final concentration of 1 μM and fluorescence is measured using an Envision Reader (PerkinElmer) with the wavelength excitation setting of 355 nm and the wavelength emission setting of 460 nm.

Assay [1] deals with T2, PKK in kaolin activated human platelet poor plasma (Homo sapiens, UniProt P03952).
T2 construct: Platelet poor plasma (PPP) obtained from human wholeblood; from tissue
T2 sequence (P03952 391-638 limits assumed): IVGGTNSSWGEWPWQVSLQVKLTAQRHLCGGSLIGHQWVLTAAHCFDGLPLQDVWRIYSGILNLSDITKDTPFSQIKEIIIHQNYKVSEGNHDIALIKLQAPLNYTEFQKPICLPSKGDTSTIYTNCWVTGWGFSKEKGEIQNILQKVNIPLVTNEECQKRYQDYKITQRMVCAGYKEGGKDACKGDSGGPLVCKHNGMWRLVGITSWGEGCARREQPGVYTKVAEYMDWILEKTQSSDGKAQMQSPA
T2 sequence (P03952 20-390 limits assumed): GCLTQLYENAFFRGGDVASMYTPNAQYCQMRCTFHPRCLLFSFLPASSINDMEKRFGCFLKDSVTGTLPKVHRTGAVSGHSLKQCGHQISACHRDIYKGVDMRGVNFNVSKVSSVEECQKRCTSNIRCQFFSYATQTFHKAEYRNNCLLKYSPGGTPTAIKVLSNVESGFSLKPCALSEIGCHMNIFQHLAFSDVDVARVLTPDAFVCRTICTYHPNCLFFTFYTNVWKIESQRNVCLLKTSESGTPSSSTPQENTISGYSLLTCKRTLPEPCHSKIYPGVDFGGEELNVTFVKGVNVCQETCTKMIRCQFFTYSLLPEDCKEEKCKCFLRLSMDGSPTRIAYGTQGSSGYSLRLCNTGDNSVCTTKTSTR
The experiment in a line: Inhibition of PKK in kaolin activated human PPP.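 Further: readout is the rate of fluorogenic substrate cleavage in rfu per min.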 The class given is biochemical. Particulars: 25-750 μg/mL kaolin, global fit, text b200 calls the values IC90. On the procedure:
Platelet poor plasma (PPP) obtained from human wholeblood, anticoagulated with Na-Citrate, is incubated with various concentrations of the test compound together with either 25, 75, 250, or 750 μg/mL kaolin in assay buffer for 20 min at 37° C. such that for each kaolin dose used a concentration response is obtained for the test compound.

T1 sequence (P03952 20-390 limits assumed): as above
T1 sequence (P03952 391-638 limits assumed): as the sequence (P03952 391-638 limits assumed) above

With `Cn1cnc2c1CC[C@H]2NC(=O)c1cn(Cc2ccc(N3CC4C(C3)C4(F)F)nc2Cl)nn1` (stereo partly drawn) [Example 1, 1-[(2-Chloro-6-{6,6-difluoro-3-azabicyclo[3.1.0]hexan-3-yl}pyridin-3-yl)methyl]-N-[(4R)-1-methyl-1H,4H,5H,6H-cyclopenta[d]imidazol-4-yl]-1H-1,2,3-triazole-4-carboxamide], the values for the IC50 (on Human PKK; in assay [1]) were 1.3 nM and 290 nM, respectively.

As for `COCc1nc(N2CC3C(C2)C3(F)F)ccc1Cn1cc(C(=O)N[C@@H]2CCc3c2ncn3C)cn1` (stereo partly drawn) [Example 2, 1-[(6-{6,6-Difluoro-3-azabicyclo[3.1.0]hexan-3-yl}-2-(methoxymethyl)pyridin-3-yl)methyl]-N-[(4R)-1-methyl-1H,4H,5H,6H-cyclopenta[d]-imidazol-4-yl]-1H-pyrazole-4-carboxamide], the IC50 (in general, the concentration that inhibits the measured activity by half) was found to be 3.1 nM at Human PKK and 253 nM in assay [1].

Consider `Cn1cnc2c1CC[C@H]2NC(=O)c1cn(Cc2ccc(N3CC4(CC4)C3)nc2Cl)nn1` [Example 5, 1-[(6-{5-Azaspiro[2.3]hexan-5-yl}-2-chloropyridin-3-yl)methyl]-N-[(4R)-1-methyl-1H,4H,5H,6H-cyclo-penta[d]imidazol-4-yl]-1H-1,2,3-triazole-4-carboxamide], for which the IC50 amounted to 1.1 nM against Human PKK and 278 nM in assay [1].

For `Cn1cnc2c1CC[C@H]2NC(=O)c1cn(Cc2ccc(N3CC4(CC4)C3)nc2Br)nn1` [Example 6, 1-[(6-{5-Azaspiro[2.3]hexan-5-yl}-2-bromopyridin-3-yl)methyl]-N-[(4R)-1-methyl-1H,4H,5H,6H-cyclo-penta[d]imidazol-4-yl]-1H-1,2,3-triazole-4-carboxamide], the results for the IC50 (against Human PKK; in assay [1]) were 0.9 nM and 1880 nM, respectively.

On to `Cn1cnc2c1CC[C@H]2NC(=O)c1cn(Cc2ccc(N3CC4C(C3)C4(F)F)nc2F)cn1` (stereo partly drawn) [Example 7, 1-[(6-{6,6-Difluoro-3-azabicyclo[3.1.0]hexan-3-yl}-2-fluoropyridin-3-yl)methyl]-N-[(4R)-1-methyl-1H,4H,5H,6H-cyclopenta[d]imidazol-4-yl]-1H-imidazole-4-carboxamide], for which the IC50 against Human PKK came to 1.4 nM; in assay [1], 151 nM.

As for `Cn1cnc2c1CC[C@H]2NC(=O)c1cn(Cc2ccc(N3CC4CC4C3)cn2)nn1` (stereo partly drawn) [Example 8, 1-[(5-{3-Azabicyclo[3.1.0]hexan-3-yl}pyridin-2-yl)methyl]-N-[(4R)-1-methyl-1H,4H,5H,6H-cyclopenta[d]imidazol-4-yl]-1H-1,2,3-triazole-4-carboxamide], the IC50 at Human PKK was determined as 2.3 nM; in assay [1], 352 nM.

`Cn1cnc2c1CC[C@H]2NC(=O)c1cnn(Cc2ccc(N3CC4CC4C3)cn2)c1` (stereo partly drawn) [Example 9, 1-[(5-{3-Azabicyclo[3.1.0]hexan-3-yl}pyridin-2-yl)methyl]-N-[(4R)-1-methyl-1H,4H,5H,6H-cyclopenta[d]imidazol-4-yl]-1H-pyrazole-4-carboxamide]: the IC50 against Human PKK is 3.8 nM; in assay [1], 603 nM.

On to `Cn1cnc2c1CC[C@H]2NC(=O)c1cn(Cc2ccc(N3CC4(CC4)C3)nc2F)nn1` [Example 10, 1-[(6-{5-Azaspiro[2.3]hexan-5-yl}-2-fluoropyridin-3-yl)methyl]-N-[(4R)-1-methyl-1H,4H,5H,6H-cyclo-penta[d]imidazol-4-yl]-1H-1,2,3-triazole-4-carboxamide], for which the figures for the IC50 (against Human PKK; in assay [1]) were 2.5 nM and 789 nM, respectively.

`Cn1cnc2c1CC[C@H]2NC(=O)c1cn(Cc2ccc(N3CC4(CC4)C3)nc2F)cn1` [Example 11, 1-[(6-{5-Azaspiro[2.3]hexan-5-yl}-2-fluoropyridin-3-yl)methyl]-N-[(4R)-1-methyl-1H,4H,5H,6H-cyclopenta[d]imidazol-4-yl]-1H-imidazole-4-carboxamide]: the IC50 against Human PKK was found to be 2.1 nM; in assay [1] it was 300 nM.

As for `Cn1cnc2c1CC[C@H]2NC(=O)c1cnn(Cc2ccc(N3CC4(CC4)C3)nc2F)c1` [Example 12, 1-[(6-{5-Azaspiro[2.3]hexan-5-yl}-2-fluoropyridin-3-yl)methyl]-N-[(4R)-1-methyl-1H,4H,5H,6H-cyclopenta[d]imidazol-4-yl]-1H-pyrazole-4-carboxamide], the IC50 came out at 3.4 nM against Human PKK and 802 nM in assay [1].

On to `Cn1cnc2c1CC[C@H]2NC(=O)c1cnn(Cc2ccc(N3CC4(CC4)C3)nc2Br)c1` [Example 13, 1-[(6-{5-Azaspiro[2.3]hexan-5-yl}-2-bromopyridin-3-yl)methyl]-N-[(4R)-1-methyl-1H,4H,5H,6H-cyclopenta[d]imidazol-4-yl]-1H-pyrazole-4-carboxamide], for which the values for the IC50 (against Human PKK; in assay [1]) were 1.1 nM and 451 nM, respectively.

`Cn1cnc2c1CC[C@H]2NC(=O)c1cn(Cc2ccc(N3CC4C(C3)C4(F)F)nc2Br)nn1` (stereo partly drawn) [Example 14, 1-[(2-Bromo-6-{6,6-difluoro-3-azabicyclo-[3.1.0]hexan-3-yl}pyridin-3-yl)methyl]-N-[(4R)-1-methyl-1H,4H,5H,6H-cyclopenta[d]imidazol-4-yl]-1H-1,2,3-triazole-4-carboxamide]: the IC50 against Human PKK worked out at 1 nM; in assay [1] it was 636 nM.

On to `Cc1nc(N2C[C@@H]3[C@@H](CO)[C@@H]3C2)ncc1Cn1cc(C(=O)N[C@@H]2CCc3c2ncn3C)cn1` [Example 235, 1-({2-[(1R,5S,6S)-6-(Hydroxymethyl)-3-azabicyclo[3.1.0]hexan-3-yl]-4-methylpyrimidin-5-yl}methyl)-N-[(4R)-1-methyl-1H,4H,5H,6H-cyclopenta[d]imidazol-4-yl]-1H-pyrazole-4-carboxamide], for which the IC50 at Human PKK stood at 214 nM.

`Cc1nc(N2C[C@@H]3[C@@H](O)[C@@H]3C2)ncc1Cn1cc(C(=O)N[C@@H]2CCc3c2ncn3C)cn1` [Example 236, 1-({2-[(1R,5S,6S)-6-Hydroxy-3-azabicyclo[3.1.0]hexan-3-yl]-4-methylpyrimidin-5-yl}methyl)-N-[(4R)-1-methyl-1H,4H,5H,6H-cyclopenta[d]imidazol-4-yl]-1H-pyrazole-4-carboxamide] gave an IC50 against Human PKK of 222 nM.

`Cc1nc(N2CCC3(CC2)CC3)ncc1Cn1cc(C(=O)N[C@@H]2CCc3c2ncn3C)cn1` [Example 237, 1-[(2-{6-Azaspiro[2.5]octan-6-yl}-4-methylpyrimidin-5-yl)methyl]-N-[(4R)-1-methyl-1H,4H,5H,6H-cyclopenta[d]imidazol-4-yl]-1H-pyrazole-4-carboxamide] registered an IC50 at Human PKK of 111 nM.

Compound `Cc1nc(N2CC3CCC3C2)ncc1Cn1cc(C(=O)N[C@@H]2CCc3c2ncn3C)cn1` (stereo partly drawn) [Example 238, 1-[(2-{3-Azabicyclo[3.2.0]heptan-3-yl}-4-methylpyrimidin-5-yl)methyl]-N-[(4R)-1-methyl-1H,4H,5H,6H-cyclopenta[d]imidazol-4-yl]-1H-pyrazole-4-carboxamide] displayed an IC50 against Human PKK of 123 nM.

Consider `Cc1nc(N2CC3CCCC3C2)ncc1Cn1cc(C(=O)N[C@@H]2CCc3c2ncn3C)cn1` (stereo partly drawn) [Example 239, N-[(4R)-1-Methyl-1H,4H,5H,6H-cyclopenta[d]imidazol-4-yl]-1-[(4-methyl-2-{octahydrocyclopenta[c]pyrrol-2-yl}pyrimidin-5-yl)methyl]-1H-pyrazole-4-carboxamide], for which, at Human PKK, half-maximal inhibition (IC50) was put at 123 nM.

As to `Cc1nc(N2CCC3(CCC3)C2)ncc1Cn1cc(C(=O)N[C@@H]2CCc3c2ncn3C)cn1` [Example 240, 1-[(2-{6-Azaspiro[3.4]octan-6-yl}-4-methylpyrimidin-5-yl)methyl]-N-[(4R)-1-methyl-1H,4H,5H,6H-cyclopenta[d]imidazol-4-yl]-1H-pyrazole-4-carboxamide], the midpoint of inhibition on Human PKK, the IC50, lay at 52 nM.
